In patent US9718781B2, “Methods and compounds for treating proliferative disorders and viral infections” (University College Dublin, National University of Ireland, …, priority 2012, dated 2017):

Legend:
human platelets = test: Thrombin-induced platelet aggregation of human platelets ex vivo; type: cell-based
Source text: The method of assessing platelet aggregation also allows evaluation of the effect of the compounds of the invention on platelet aggregation upon stimulation by other agonists, e.g., adenosine diphosphate (ADP) and thrombin.

[1] = test system: MDA-MB-231-2003 breast cancer cells; test: Experimental metastasis breast tumor xenograft model in SCID mice; type: in vivo; settings: 360 μg/kg i.p. 24 hr and 4 hr before tumor cell injection
Method: An anticancer agent including a compound represented by formula X (hereinafter “X”) was evaluated for the ability to inhibit tumor growth and experimental metastasis in a breast tumor xenograft model in immunocompromised (SCID) mice.
MDA-MB-231-2003 breast cancer cells (1×10^6 in 0.1 ml PBS) were injected into the lateral tail vein of female SCID mice and the ability of X to inhibit metastasis to the lung was investigated (n=5 for the test X treated-mice or n=4 for the control PBS-treated mice). Mice were initially treated via intraperitoneal (i.p.) injection with either X (360 μg/kg; ˜5 μM final concentration in blood; the “test” mice) or with PBS (the “control” mice) some 24 hr. before tumor cell injection. A second injection (i.p.) was given at the same dosage of X (360 μg/kg) at 4 hr. before tumor cell injection to the test mice while the control mice received an equivalent volume of PBS before tumor cell injection. […] Thereafter, all mice were monitored by image analysis (IVIS® imaging system) every two weeks for tumor cells in their lungs and were sacrificed at day 28 post tumor cell injection.

[2] = test system: MDA-MB-231-D3H2LN-Luc cells; test: Spontaneous/orthotopic breast cancer model, mammary fat pad injection; type: in vivo; settings: for First Appearance of Mets, Mean ± S.E.M.: lymph node metastases; for Day of Sacrifice Mean ± S.E.M.: primary tumor reaching 15 mm
Source text: In order to further assess the efficacy of TP20 for use as an anti-cancer, affecting primary tumor growth, and/or as an anti-metastatic agent, a spontaneous/orthotopic cancer model was employed by injection of the triple negative MDA-MB-231 breast cancer cell line (ER, PR, Her2 negative) into the mammary fat pad of immune compromised Balb-C nude mice. More specifically, in order to increase the growth rate of the primary tumor and increase the incidence of metastasis, a more aggressive variant of the MDA-MB-231 cell line, namely MDA-MB-231-D3H2LN-Luc (Jenkins et al., (2005), Breast Cancer Res, 7, 444-454), was used in the studies described below. Furthermore, the latter MDA-MB-231-D3H2LN-Luc cell line stably over-expresses the firefly luciferase gene (Luc) thereby enabling monitoring and in vivo detection of both the primary tumor and of the secondary metastasis by bioluminescent imaging in addition to assessment of the growth of the primary tumor by standard caliper measurements. In total, three groups of animals were studied and the diagram below gives an overview of the study design. FIG. 7 provides a diagram of a study design.
Body weights of the BALB/c nude mice were recorded prior to initiating the study and, thereafter, 3 times per week (Monday, Wednesday & Friday) following the mammary fat pad injection up to the point of sacrifice or death of the animal, as per welfare guidelines. Animals were typically sacrificed once the primary tumor reached 15 mm or, as required, if animals needed to be culled for welfare reasons.
BALB/C-nude mice (female, 5-7 weeks old) were pre-treated 24 and 4 hr with TP20 at 0.36 mg/kg (blue line; Group 1), 1 mg/kg (red line; Group 2) or as control, vehicle (1% DMSO in PBS; black line; Group 3) prior to injecting MDA-MB-231-D3H2LN-Luc cells (50 μl, 2×106 suspended in 50% DPBS/50% Matrigel) into the mammary fat pad with a 27.5 G needle. Thereafter, mice were treated with TP20 or vehicle thrice weekly (Monday, Wednesday & Friday) until the primary tumor width reached 15 mm. Body weight was monitored 3 times per week. The data presented represents the mean (FIG. 8A; ±S.E.M.) or Percentage in Body Weight (FIG. 8B; ±S.E.M.), where weight at day −1 is 100%.
Through the duration of the study to monitor the growth of the primary (1°) tumor, for welfare and experimental reasons, caliper measurements were performed thrice weekly (i.e., Monday, Wednesday & Friday) and involved measuring the width and length of the primary tumor mass. These measurements were then used in the following formula to calculate the tumor volume (mm3): Volume of Tumor (mm3)=length×width2×0.5
BALB/C-nude mice (female, 5-7 weeks old) were pre-treated 24 and 4 hr with TP20 at 0.36 mg/kg (blue line; Group 1), 1 mg/kg (red line; Group 2) or as control, vehicle (1% DMSO; black line; Group 3) prior to injecting MDA-MB-231-D3H2LN-Luc cells (50 μl, 2×106 suspended in 50% DPBS/50% Matrigel) into the mammary fat pad with a 27.5 G needle. Thereafter, mice were treated with TP20 or vehicle thrice weekly (Monday, Wednesday & Friday) until the primary tumor diameter reached 15 mm. Primary tumor growth was monitored thrice weekly using caliper measurements where tumor volume (mm3) is calculated by the formula Volume=Length×width2×0.5. The data presented represents the mean (±S.E.M.) tumor volume (mm3) for each of the treatment groups as a function of time (days). Fine black lines represent the linear trend for each of the treatment groups.
As the 1° tumors reached 15 mm in diameter, for welfare reasons the animals were sacrificed. The day of sacrifice was analyzed using Kaplan-Meier survival analysis and subsequent Log-Rank and Wilcoxon tests to compare any differences between the treatments groups in terms of time of death. […]

COc1ccc(-c2cccc(Oc3ccc([N+](=O)[O-])cc3S(=O)(=O)NC(=O)NC(C)(C)C)c2)cc1 [TP20, N-(tert-butylcarbamoyl)-2-((4′-methoxy-[1,1′-biphenyl]-3-yl)oxy)-5-nitrobenzene-sulfonamide]
effect on thrombin-induced platelet aggregation (human platelets): did not affect | lung tumor development ([1]; day 28): did not develop any tumors | mice surviving to the end of the experiment (day 28) ([1]; n=5): 5 | effect on primary tumor growth ([2]; 0.36 mg/kg and 1 mg/kg vs. vehicle): significantly decreases the primary tumor growth | tolerability of repeat administration (body weight) ([2]; 0.36 mg/kg and 1 mg/kg, thrice weekly): well-tolerated | First Appearance of Mets, Mean ± S.E.M. ([2]; Group 1, 0.36 mg/kg): 22.5 ± 2.16 (N = 8) days | Day of Sacrifice Mean ± S.E.M. ([2]; Group 1, 0.36 mg/kg): 38.5 ± 2.83 (N = 8) days | First Appearance of Mets, Mean ± S.E.M. ([2]; Group 2, 1 mg/kg): 26.2 ± 3.71 (N = 9) days | Day of Sacrifice Mean ± S.E.M. ([2]; Group 2, 1 mg/kg): 38.4 ± 3.86 (N = 7) days
